Experimental data reported in patent US4609549A, “Biologically active substance from Islets-Activating Protein” (Kaken Pharmaceutical Co., Ltd., priority 1983, dated 1986).

Legend:
Isoelectric point = assay type: physicochemical
Description: The isoelectric point of IAP determined by the method described in Wringley, C.W., "J. Chromatogr.", 36, 362-372 (1968) is pH 8.9±0.5.

[1] = Stability of IAP (heat, moisture); assay type: physicochemical
Procedure: (§1) The powder of IAP obtained by freeze-drying the aqueous dialysed and de-salted solution is non-deliquescent, and white or light brown in colour, and is soluble in water to the extent of 3 to 5 mg/ml at room temperature. […] When IAP is put into aqueous 6N hydrochloric acid solution, a precipitate white in colour separates out. Addition of sodium sulfate, dry ice plus acetone, ethanol, trichloroacetic acid, aqueous solution of zinc chloride, or aqueous solutions containing several other kinds of metal ions to an aqueous solution of IAP at 4° C., causes the aqueous solution to become turbid and a precipitate to settle out. When IAP is put into a mixture of water and chloroform or of water and n-butanol, IAP gathers on the interface of both liquids.
In addition, when IAP is dissolved into aqueous 0.1M phosphate buffer solution of pH of 7.0 containing sodium chloride at 0.5M and the solution is subjected to dialysis against distilled water as the external liquid, the mixed solution becomes turbid once, however, with the progress of dialysis, the white turbidity disappears completely.

Solubility = assay type: physicochemical; conditions: pyridine, 2-mercaptoethanol, aqueous sodium dodecylsulfate and cystine
Procedure: as §1

leukocyte count [2] = assay: Stability in methylamine solution: change with time of ΔLP activity; assay type: in vivo, male Wistar rats; conditions: 3.44M methylamine solution (pH 9.5)
Description: (§2) ΔLP activity=(leukocyte count in sample-administered
(§3) group)-(leukocyte count in control group)
(§4) The stability in an amine-containing alkaline solution of the modified IAP of the present invention and an IAP amidino derivative disclosed in Japanese Patent Application Laid-Open No. 129295/80 (Application No. 35877/79) was examined.

ddY mice = assay: Acute toxicity (LD50), intravenous; assay type: in vivo; conditions: i.v., ddY mice (male)
Description: (§5) The control is non-modified IAP.

[3] = test system: Epinephrine hyperglycemia; assay: Epinephrine hyperglycemia inhibitory activity (EpI activity) one day after administration; assay type: in vivo; conditions: 12 μg/kg i.v., male Wistar rats
Procedure: IV. Epinephrine hyperglycemia inhibitory activity (EpI activity)
(§6) Each sample is intravenously injected to the male Wistar rats (about 150 g body weight) at a dose of 12 μg/kg, and after sample injection, epinephrine is subcutaneously injected to the rats under fast on a daily basis. The difference between blood sugar level before epinephrine injection and that one hour after injection is compared with the difference in the control group to thereby determine the EpI activity (%).
(§7) ΔGC : control group [(blood sugar level after epinephrine injection)-(blood sugar level before injection)]
(§8) ΔGT : sample-administered group [(blood sugar level after epinephrine injection)-(blood sugar level before injection)] [formula]
as §5

[4] = test system: pertussis 18-323 strain (I-phase); assay: Infection prevention test (survival after intracerebral inoculation of live pertussis bacteria); assay type: in vivo, Bordetella pertussis (ddY mice, male); conditions: two weeks after inoculation
Procedure: (ii) The IAP processed into toxoid with glutaraldehyde (hereinafter referred to as toxoid-processed IAP) used as the comparative example was prepared in the following precedures. To 0.1M phosphate buffer solution (containing 2M urea, pH 7.0) containing IAP (0.5 mg/ml) adjusted to pH 9.0 by adding 1N sodium hydroxide, was added a 25% aqueous solution of glutaraldehyde so that the final concentration of glutaraldehyde would become 0.05%. The mixed solution was reacted under stirring at room temperature for 22 hours. The resultant solution was then sufficiently dialyzed against a 0.1M phosphate buffer solution (containing 2M urea, pH 7.0) to obtain the toxoid-processed IAP.
(iii) A toxoid-processed reductively methylated IAP was also similarly prepared by using a reductively methylated IAP solution in place of an IAP solution.
There were prepared five kinds of the physiological saline solutions containing a dead pertussis vaccine (made by KAKEN PHARMACEUTICAL CO., LTD.), toxoid-processed IAP, toxoid-processed reductively methylated IAP, IAP and reductively methylated IAP, respectively, and 0.1 ml of each of these physiological saline solutions was administered into the peritoneal cavities of the ddY mice (male, 4 weeks old) (13 mice per one group). Two weeks after the administration, the live pertussis 18-323 strain (I-phase) bacteria were inoculated into the encephalon at a rate of 4×10^4cells/animal. […] Used as the control was a group of mice which were treated similarly by giving 0.1 ml of a physiological saline solution alone into the peritoneal cavity.

glucose tolerance = assay: Glucose tolerance; assay type: in vivo; conditions: mammals
[5] = test system: Epinephrine hyperglycemia; assay: Stability in methylamine solution: change with time of EpI activity; assay type: in vivo, male Wistar rats; conditions: 3.44M methylamine solution (pH 9.5)
Procedure: as §6, §7, §8, §4

secretion of insulin = assay: Activity of promoting the secretion of insulin; assay type: in vivo, mammals
Description: The definition of the activity units used in the present invention is described in Japanese Patent Application Laying Open No. 96392/72 which corresponds to G.B. Patent No. 1,569,046.

leukocyte count [6] = assay: Leukocytosis-promoting activity (ΔLP activity) one day after administration; conditions: 12 μg/kg i.v., male Wistar rats
Procedure: V. Leukocytosis-promoting activity (ΔLP activity)
Each sample is intravenously injected into male Wister rats (about 150 g body weight) at a rate of 12 μg/kg, and the leukocyte count is measured on a daily basis. The leukocyte increment is determined from the difference in leukocyte count between the sample-administered group and the control group.
as §2, §3
The pharmacological activity, acute toxicity, and stability in an alkaline solution, of the resultant products obtained in the Examples were examined in the manners described above.
as §5

## IAP: Islets-Activating Protein obtained by the cultivation of suitable strain(s) of the microorganism Bordetella pertussis (Phase I or II)
Isoelectric point
  isoelectric point: 8.9±0.5 pH
[1]
  deliquescence of freeze-dried powder: non-deliquescent
[1]; heated to 80° C. or higher
  stability of aqueous solution on heating: the solution becomes turbid white in colour
Solubility
  solubility in other solvents: soluble in pyridine, 2-mercaptoethanol and aqueous solution of sodium dodecylsulfate and of cystine
Leukocyte count [2]; treatment time 0 hr
  ΔLP activity: 144 × 10^2 /mm^3
Leukocyte count [2]; treatment time 24 hr
  ΔLP activity: 141 × 10^2 /mm^3
Leukocyte count [2]; treatment time 48 hr
  ΔLP activity: 138 × 10^2 /mm^3
Leukocyte count [2]; treatment time 72 hr
  ΔLP activity: 139 × 10^2 /mm^3
ddY mice
  LD50: 0.215 mg/kg
[3]
  EpI activity: 85.0%
[4]; 0.04 μg/animal i.p.
  Number of animals which survived/total number of animals tested: 6/13
  Survival rate: 46%
[4]; 0.2 μg/animal i.p.
  Number of animals which survived/total number of animals tested: 8/13
  Survival rate: 62%
[4]; 1 μg/animal i.p.
  Number of animals which survived/total number of animals tested: 3/13
  Survival rate: 23%
Glucose tolerance
  activity of improving the glucose tolerance: improving the glucose tolerance in mammals
[5]; treatment time 0 hr
  EpI activity: 82.0%
[5]; treatment time 24 hr
  EpI activity: 83.0%
[5]; treatment time 48 hr
  EpI activity: 80.5%
[5]; treatment time 72 hr
  EpI activity: 79.8%
Secretion of insulin; after a single administration
  duration of insulin secretion promoting and glucose tolerance improving actions: several weeks to several months
Secretion of insulin; in vivo
  activity of promoting the secretion of insulin: not less than 193 unit/μg
Leukocyte count [6]
  ΔLP activity: 140.1 × 10^2 /mm^3
